Data reported in patent US11642343B2, “Methods of treating splenomegaly” (Telios Pharma, Inc., priority 2020, dated 2023).

What was measured:
MV-411 cells = assay: Fibronectin release: detachment of cells from fibronectin-coated plates; type: cell-based; settings: MV-411 cells on fibronectin-coated plates; 1, 2, or 5 μm for two hours at 37° C.; CellTiter Glo; FIG. 2
Protocol: Fibronectin is an important component of the microenvironment extracellular matrix and attaches to cells through VLA-4 (integrin α4β1). Detachment of cells from fibronectin after exposure to Compound No. 128 was assessed by plating 1×10^6 MV-411 cells on fibronectin-coated plates (3 replicates). The cells were allowed to adhere overnight at 37° C. and then unadhered cells were washed away. Next, attached cells were treated with DMSO or Compound No. 128 (1, 2, or 5 μm) for two hours at 37° C. Detached cells were then collected and cell numbers determined using CellTiter Glo.

[1] = test system: CD11a (LFA-1), CD62L (L-selectin), and CD49d (VLA-4); type: in vivo, human; settings: monocytes from blood of treated COVID-19 patients; FIG. 3
stimulated whole blood = assay: In vitro cytokine production in stimulated whole blood; type: cell-based; settings: 24 hour incubation, FIG. 4
Protocol: The impact on in vitro cytokine production after exposure to Compound No. 128 was assessed in stimulated whole blood following a 24 hour incubation.

BTK [2] = molecular target: T1, BTK (Homo sapiens, UniProt Q06187); assay: Inhibition of BTK phosphorylation (activation) in healthy B-cells; type: cell-based; parameters: endogenous in cells; settings: healthy PBMC incubated two hours with 10 minutes of αIgM and H2O2 stimulation
T1 sequence (Q06187 whole entry): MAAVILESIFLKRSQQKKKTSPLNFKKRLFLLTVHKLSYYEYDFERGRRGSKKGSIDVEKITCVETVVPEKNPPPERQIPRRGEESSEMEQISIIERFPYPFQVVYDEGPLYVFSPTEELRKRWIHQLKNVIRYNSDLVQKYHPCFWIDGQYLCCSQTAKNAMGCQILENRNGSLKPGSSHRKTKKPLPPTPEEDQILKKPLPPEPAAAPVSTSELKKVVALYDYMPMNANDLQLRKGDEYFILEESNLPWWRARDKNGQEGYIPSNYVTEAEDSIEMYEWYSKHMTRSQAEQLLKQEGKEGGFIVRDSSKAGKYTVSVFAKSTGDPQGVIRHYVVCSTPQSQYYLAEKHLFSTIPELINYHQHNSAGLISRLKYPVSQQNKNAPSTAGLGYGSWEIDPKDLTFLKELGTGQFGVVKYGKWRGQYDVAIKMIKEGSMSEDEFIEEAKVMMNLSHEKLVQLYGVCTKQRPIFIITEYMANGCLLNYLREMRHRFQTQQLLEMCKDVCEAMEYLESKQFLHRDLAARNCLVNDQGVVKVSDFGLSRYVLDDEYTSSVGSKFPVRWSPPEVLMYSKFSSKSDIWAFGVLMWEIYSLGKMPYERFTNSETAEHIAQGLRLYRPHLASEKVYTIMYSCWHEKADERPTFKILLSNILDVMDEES
Protocol: (§1) Inhibition of BTK phosphorylation (activation) by Compound No. 128 (1-(4-(((6-amino-5-(4-phenoxyphenyl)pyrimidin-4-yl)amino)methyl)-4-fluoropiperidin-1-yl)prop-2-en-1-one) was assessed in healthy B-cells and in myeloid cell lines MOLM-13 basal and Hel-92 basal. Compound No. 128 was incubated with the myeloid cells lines for two hours with no stimulation and with healthy PBMC5 for two hours with 10 minutes of αIgM and H2O2 stimulation.

BTK [3] = molecular target: T1, BTK; assay: Inhibition of BTK phosphorylation (activation) in myeloid cell line MOLM-13 basal; type: cell-based; parameters: endogenous in cells; host or cells: MOLM-13; settings: incubated two hours with no stimulation
Protocol: as §1

BTK [4] = molecular target: T1, BTK; assay: Inhibition of BTK phosphorylation (activation) in myeloid cell line Hel-92 basal; type: cell-based; parameters: endogenous in cells; host or cells: MOLM-13; settings: incubated two hours with no stimulation
Protocol: as §1

Hel-92 (V617F mut) cells = assay: In vitro inhibition of cell migration towards SDF-1 (CXCL12) through a permeable membrane; settings: FIG. 1A and 1B

## C=CC(=O)N1CCC(F)(CNc2ncnc(N)c2-c2ccc(Oc3ccccc3)cc2)CC1 [Compound No. 128, 1-(4-(((6-amino-5-(4-phenoxyphenyl)pyrimidin-4-yl)amino)methyl)-4-fluoropiperidin-1-yl)prop-2-en-1-one]
MV-411 cells
  detachment of cells from fibronectin: cells detached from fibronectin
[1]
  levels of surface molecules CD11a (LFA-1), CD62L (L-selectin), CD49d (VLA-4): reduced levels of surface molecules in some patients
Stimulated whole blood
  cytokine and chemokine production: decreased cytokine and chemokine production upon cellular stimulation
BTK [2]
  EC50: 16.9 nM
BTK [3]
  EC50: 21.4 nM
BTK [4]
  EC50: 19.7 nM
Hel-92 (V617F mut) cells
  inhibition of cell migration towards SDF-1: inhibit cell migration towards SDF-1
